Measurements as given in ChEMBL document CHEMBL1123199, “Synthesis and structure-activity relationships of naftifine-related allylamine antimycotics” (1986).
Converted amounts (≈) assume the structure as drawn.

What was measured:
Cavia porcellus [1] = assay: In vivo antifungal activity by topical treatment of guinea pig dermatophytosis caused by Trichophyton mentagrophytes at a dose of 0.1%; format: functional
Microsporum canis = assay: Antifungal activity against Microsporum canis; format: functional
Epidermophyton floccosum = assay: Antifungal activity against Epidermophyton floccosum.; format: functional
Sporothrix schenckii = assay: Antifungal activity measured against Sporothrix schenck ii.; format: functional
Candida parapsilosis = assay: Antifungal activity against Candida parapsilosis.; format: functional; conditions: Lodderomyces parapsilosis
Trichophyton benhamiae = assay: Antifungal activity measured against Trichophyton mentagrophytes; format: functional, Arthroderma benhamiae
Cavia porcellus [2] = assay: In vivo antifungal activity by topical treatment of guinea pig dermatophytosis caused by Trichophyton mentagrophytes at a dose of 0.5%; format: functional
Cavia porcellus [3] = assay: In vivo antifungal activity by topical treatment of guinea pig dermatophytosis caused by Trichophyton mentagrophytes at a dose of 2%; format: functional
Aspergillus fumigatus = assay: Antifungal activity measured against Aspergillus fumigatus; format: functional

| MIC (Microsporum canis) [µg/mL] | MIC (Epidermophyton floccosum) [µg/mL] | MIC (Sporothrix schenckii) [µg/mL] | MIC (Candida parapsilosis) [µg/mL] | MIC (Trichophyton benhamiae) [µg/mL] | MIC (Aspergillus fumigatus) [µg/mL] | SMILES | Activity (Cavia porcellus [1]) [%] | Activity (Cavia porcellus [2]) [%] | Activity (Cavia porcellus [3]) [%] |
| --- | --- | --- | --- | --- | --- | --- | --- | --- | --- |
| 0.4 (≈ 1.24 µM) | 0.4 (≈ 1.24 µM) | 3.1 (≈ 9.63 µM) | 100 (≈ 311 µM) | 0.2 (≈ 0.621 µM) | > 100 | CN(C/C=C/c1ccc(Cl)cc1)Cc1cccc2ccccc12 | 0 | 25 | 44 |
| 0.2 (≈ 0.682 µM) | 0.2 (≈ 0.682 µM) | 1.6 (≈ 5.45 µM) | 3.1 (≈ 10.6 µM) | 0.1 (≈ 0.341 µM) | 25 (≈ 85.2 µM) | CN(C/C=C/c1ccccc1)Cc1csc2ccccc12 | 0 | 54 | 97 |
| 100 (≈ 332 µM) | 100 (≈ 332 µM) | 100 (≈ 332 µM) | > 100 | 50 (≈ 166 µM) | > 100 | C/C(=C\CN(C)Cc1cccc2ccccc12)c1ccccc1 |  |  |  |
| 0.2 (≈ 0.721 µM) | 0.2 (≈ 0.721 µM) | 3.1 (≈ 11.2 µM) | 6.2 (≈ 22.3 µM) | 0.1 (≈ 0.36 µM) | 50 (≈ 180 µM) | CN(C/C=C/C1=CCCC1)Cc1cccc2ccccc12 | 30 | 91 | 100 |
| 0.1 (≈ 0.341 µM) | 0.1 (≈ 0.341 µM) | 1.6 (≈ 5.45 µM) | 1.6 (≈ 5.45 µM) | 0.1 (≈ 0.341 µM) | 12.5 (≈ 42.6 µM) | CN(C/C=C/c1ccccc1)Cc1cccc2sccc12 |  | 75 | 100 |
| 100 (≈ 366 µM) | 100 (≈ 366 µM) | 100 (≈ 366 µM) | > 100 | 12.5 (≈ 45.7 µM) | > 100 | C(=C\c1ccccc1)/CNCc1cccc2ccccc12 [N-DEALKYL NAFTIFINE] |  |  |  |
| < 1.6 | < 1.6 | < 1.6 | 25 (≈ 76.8 µM) | < 1.6 | 50 (≈ 154 µM) | CCCCCOC(=O)/C=C/CN(C)Cc1cccc2ccccc12 | 0 | 0 | 10 |
| > 100 | > 100 | > 100 | > 100 | > 100 | > 100 | CN(C/C=C/CO)Cc1cccc2ccccc12 |  |  |  |
| > 100 | 100 (≈ 369 µM) | 100 (≈ 369 µM) | > 100 | 100 (≈ 369 µM) | > 100 | C(=C\c1ccccc1)/C=N/Cc1cccc2ccccc12 |  |  |  |
| > 100 | > 100 | > 100 | > 100 | > 100 | > 100 | CN(C/C=C/c1ccccc1)C(c1ccccc1)c1ccccc1 |  |  |  |
| > 100 | > 100 | > 100 | > 100 | 25 (≈ 86.1 µM) | > 100 | C(=C\c1ccccc1)/CSCc1cccc2ccccc12 |  |  |  |
| 0.8 (≈ 2.37 µM) | 0.4 (≈ 1.19 µM) | 50 (≈ 148 µM) | 100 (≈ 296 µM) | 0.8 (≈ 2.37 µM) | 100 (≈ 296 µM) | CN(C/C=C/c1ccccc1)Cc1c2ccccc2cc2ccccc12 | 0 | 0 | 38 |
| 6.25 (≈ 22.1 µM) | 3.1 (≈ 10.9 µM) | 12.5 (≈ 44.1 µM) | > 100 | < 1.6 | > 100 | CCOC(=O)/C=C/CN(C)Cc1cccc2ccccc12 | 0 | 0 | 16 |
| 50 (≈ 172 µM) | 25 (≈ 86.1 µM) | 50 (≈ 172 µM) | > 100 | 25 (≈ 86.1 µM) | > 100 | CN(C/C=C/c1cccn1C)Cc1cccc2ccccc12 |  |  |  |
| 12.5 (≈ 42.6 µM) | 12.5 (≈ 42.6 µM) | > 100 | > 100 | 1.6 (≈ 5.45 µM) | > 100 | CN(C/C=C/C1CCCCC1)Cc1cccc2ccccc12 |  |  |  |
| 100 (≈ 423 µM) | 100 (≈ 423 µM) | > 100 | > 100 | 100 (≈ 423 µM) | > 100 | CN(C/C=C/C#N)Cc1cccc2ccccc12 |  |  |  |
| > 100 | > 100 | > 100 | > 100 | 25 | > 100 | C[N+](C)(C/C=C/c1ccccc1)Cc1cccc2ccccc12.[I-] |  |  |  |
| 100 (≈ 315 µM) | 50 (≈ 158 µM) | > 100 | > 100 | 50 (≈ 158 µM) | > 100 | COc1ccc2ccccc2c1CN(C)C/C=C/c1ccccc1 |  |  |  |
| 50 (≈ 158 µM) | 50 (≈ 158 µM) | > 100 | > 100 | 6.2 (≈ 19.5 µM) | > 100 | COc1ccc(/C=C/CN(C)Cc2cccc3ccccc23)cc1 |  |  |  |
| > 100 | > 100 | > 100 | > 100 | > 100 | > 100 | C(=C\c1ccccc1)/CN(C/C=C/c1ccccc1)Cc1cccc2ccccc12 |  |  |  |
| > 100 | > 100 | > 100 | > 100 | > 100 | > 100 | C/C=C/CN(C)Cc1cccc2ccccc12 |  |  |  |
| 12.5 (≈ 41.5 µM) | 25 (≈ 82.9 µM) | 100 (≈ 332 µM) | > 100 | 12.5 (≈ 41.5 µM) | > 100 | CN(Cc1cccc2ccccc12)CC1CC1c1ccccc1 (configuration not stated) |  |  |  |
| > 100 | > 100 | 50 (≈ 143 µM) | > 100 | > 100 | > 100 | C(=C\c1ccccc1)/CN(Cc1cccc2ccccc12)c1ccccc1 |  |  |  |

| MIC (Microsporum canis) [µg/mL] | MIC (Epidermophyton floccosum) [µg/mL] | MIC (Sporothrix schenckii) [µg/mL] | MIC (Candida parapsilosis) [µg/mL] | MIC (Trichophyton benhamiae) [µg/mL] | MIC (Aspergillus fumigatus) [µg/mL] | SMILES | Activity (Cavia porcellus [1]) [%] | Activity (Cavia porcellus [2]) [%] | Activity (Cavia porcellus [3]) [%] |
| --- | --- | --- | --- | --- | --- | --- | --- | --- | --- |
| 25 (≈ 86.7 µM) | 25 (≈ 86.7 µM) | 100 (≈ 347 µM) | > 100 | < 1.6 | > 100 | CN(C/C=C/c1ccncc1)Cc1cccc2ccccc12 |  |  |  |
| > 100 | > 100 | > 100 | > 100 | > 100 | > 100 | C(=C\c1ccccc1)/CN(Cc1cccc2ccccc12)C1CCCCC1 |  |  |  |
| 100 (≈ 332 µM) | 100 (≈ 332 µM) | 100 (≈ 332 µM) | > 100 | 12.5 (≈ 41.5 µM) | > 100 | C/C(=C\c1ccccc1)CN(C)Cc1cccc2ccccc12 |  |  |  |
| < 1.6 | 3.1 (≈ 9.89 µM) | 6.25 (≈ 19.9 µM) | > 100 | < 1.6 | 100 (≈ 319 µM) | C=CCN(C/C=C/c1ccccc1)Cc1cccc2ccccc12 |  |  |  |
| > 100 | > 100 | > 100 | > 100 | > 100 | > 100 | CN(CCC(O)c1ccccc1)Cc1cccc2ccccc12 (configuration not stated) |  |  |  |
| > 100 | > 100 | > 100 | > 100 | > 100 | > 100 | CC(=O)N(C/C=C/c1ccccc1)Cc1cccc2ccccc12 |  |  |  |
| ≤ 1.6 | ≤ 1.6 | 12.5 (≈ 43.2 µM) | 25 (≈ 86.4 µM) | ≤ 1.6 | > 100 | CN(C/C=C/c1ccccc1)CC1=CCCc2ccccc21 |  |  |  |
| 6.2 (≈ 21.4 µM) | 12.5 (≈ 43.2 µM) | > 100 | > 100 | 3.1 (≈ 10.7 µM) | > 100 | CN(CC(=O)c1ccccc1)Cc1cccc2ccccc12 |  |  |  |
| 6.2 (≈ 22.4 µM) | 6.2 (≈ 22.4 µM) | 100 (≈ 361 µM) | > 100 | < 1.6 | > 100 | CN(C/C=C/c1ccco1)Cc1cccc2ccccc12 |  |  |  |
| > 100 | > 100 | > 100 | > 100 | > 100 | > 100 | C(=C\c1ccccc1)/CN(Cc1ccccc1)Cc1cccc2ccccc12 |  |  |  |
| 25 (≈ 82.9 µM) | 12.5 (≈ 41.5 µM) | 25 (≈ 82.9 µM) | > 100 | < 1.6 | > 100 | CC(/C=C/c1ccccc1)N(C)Cc1cccc2ccccc12 (configuration not stated) |  |  |  |
| 25 (≈ 85.8 µM) | 25 (≈ 85.8 µM) | 100 (≈ 343 µM) | > 100 | 25 (≈ 85.8 µM) | > 100 | CN(C/C=C/C1CC=CCC1)Cc1cccc2ccccc12 (configuration not stated) |  |  |  |
| 6.2 (≈ 20.4 µM) | 6.2 (≈ 20.4 µM) | 50 (≈ 165 µM) | > 100 | 6.2 (≈ 20.4 µM) | > 100 | CN(CCC(=O)c1ccccc1)Cc1cccc2ccccc12 |  |  |  |
| > 100 | > 100 | > 100 | > 100 | > 100 | > 100 | CN(Cc1cccc2ccccc12)C(=O)/C=C/c1ccccc1 |  |  |  |
| 1.6 (≈ 5.04 µM) | 3.1 (≈ 9.76 µM) | 6.25 (≈ 19.7 µM) | > 100 | 1.6 (≈ 5.04 µM) | > 100 | CN(C/C=C/c1ccccc1)Cc1c2c(cc3c1CCC3)CCC2 |  |  |  |
| > 100 | > 100 | > 100 | > 100 | > 100 | > 100 | O=S(=O)(C/C=C/c1ccccc1)Cc1cccc2ccccc12 |  |  |  |
| 3.1 (≈ 9.83 µM) | < 1.6 | 50 (≈ 158 µM) | 100 (≈ 317 µM) | < 1.6 | > 100 | CC(C)N(C/C=C/c1ccccc1)Cc1cccc2ccccc12 |  |  |  |
| > 100 | > 100 | > 100 |  | > 100 | > 100 | C=CCN(C)Cc1cccc2ccccc12 |  |  |  |
| 1.6 (≈ 5.77 µM) | 12.5 (≈ 45.1 µM) | 100 (≈ 361 µM) | 25 (≈ 90.1 µM) | 1.6 (≈ 5.77 µM) | > 100 | CN(C/C=C/c1ccccc1)Cc1coc2ccccc12 |  |  |  |
| > 100 | > 100 | > 100 | > 100 | > 100 | > 100 | [O-][S+](C/C=C/c1ccccc1)Cc1cccc2ccccc12 (configuration not stated) |  |  |  |
| 0.4 (≈ 1.37 µM) | 0.4 (≈ 1.37 µM) | 6.2 (≈ 21.3 µM) | 6.2 (≈ 21.3 µM) | 0.2 (≈ 0.686 µM) | 50 (≈ 172 µM) | CN(C/C=C/c1ccccc1)CC1=CCOc2ccccc21 |  |  | 82 |
| 100 (≈ 296 µM) | 100 (≈ 296 µM) | 100 (≈ 296 µM) | > 100 | 1.6 (≈ 4.74 µM) | > 100 | CN(C/C=C/c1cccc2ccccc12)Cc1cccc2ccccc12 |  |  |  |
| 100 (≈ 296 µM) | 100 (≈ 296 µM) | 100 (≈ 296 µM) | 100 (≈ 296 µM) | 100 (≈ 296 µM) | 100 (≈ 296 µM) | CN(C/C=C/c1ccccc1)Cc1cc2ccccc2c2ccccc12 |  |  |  |

| SMILES | MIC (Microsporum canis) [µg/mL] | MIC (Epidermophyton floccosum) [µg/mL] | MIC (Sporothrix schenckii) [µg/mL] | MIC (Candida parapsilosis) [µg/mL] | MIC (Trichophyton benhamiae) [µg/mL] | MIC (Aspergillus fumigatus) [µg/mL] | Activity (Cavia porcellus [1]) [%] | Activity (Cavia porcellus [2]) [%] | Activity (Cavia porcellus [3]) [%] |
| --- | --- | --- | --- | --- | --- | --- | --- | --- | --- |
| CN(CCc1ccccc1)Cc1cccc2ccccc12 | 100 (≈ 363 µM) | 100 (≈ 363 µM) | > 100 | > 100 | 12.5 (≈ 45.4 µM) | > 100 |  |  |  |
